In brackets after ≈: the same amount, converted by molar mass.
How the values were obtained:
Format in all cases: functional, Salmonella enterica subsp. enterica serovar Typhimurium
Salmonella typhimurium [1] = test: Antimicrobial activity against multidrug-resistant Salmonella enterica serovar Typhimurium BN9945 by agar doubling dilution method
Salmonella typhimurium [2] = test: Antimicrobial activity against multidrug-resistant Salmonella enterica serovar Typhimurium 543SA98 harboring GyrA […] mutant gene by agar doubling dilution method
Salmonella typhimurium [3] = test: Antimicrobial activity against multidrug-resistant Salmonella enterica serovar Typhimurium 902SA92 harboring plasmid encoded RamR gene, GyrA S83A and D87N, GyrB S464F and ParC S80I mutant genes by agar doubling dilution method
Salmonella typhimurium [4] = test: Antimicrobial activity against Salmonella enterica serovar Typhimurium BN18/21 by agar doubling dilution method
Salmonella typhimurium [5] = test: Antimicrobial activity against soxR::kan-deficient Salmonella enterica serovar Typhimurium S/921495 by agar doubling dilution method
Salmonella typhimurium [6] = test: Antimicrobial activity against Salmonella enterica serovar Typhimurium BN18/21 harboring plasmid encoded RamR gene by agar doubling dilution method
Salmonella typhimurium [7] = test: Antimicrobial activity against soxS::kan-deficient Salmonella enterica serovar Typhimurium S/921495 by agar doubling dilution method
Salmonella typhimurium [8] = test: Antimicrobial activity against ramA::kan-deficient Salmonella enterica serovar Typhimurium BN18/21 by agar doubling dilution method
Salmonella typhimurium [9] = test: Antimicrobial activity against Salmonella enterica serovar Typhimurium BN18/71 harboring GyrA G81C, acrR mutant genes by agar doubling dilution method
Salmonella typhimurium [10] = test: Antimicrobial activity against ramR-deficient Salmonella enterica serovar Typhimurium S/921495 by agar doubling dilution method
Salmonella typhimurium [11] = test: Antimicrobial activity against ramA::kan-deficient Salmonella enterica serovar Typhimurium 102SA00 harboring GyrA S83A and D87N, GyrB S464F and ParC S80I mutant genes by agar doubling dilution method
Salmonella typhimurium [12] = test: Antimicrobial activity against Salmonella enterica serovar Typhimurium S/921495 harboring plasmid encoded RamR gene by agar doubling dilution method
Salmonella typhimurium [13] = test: Antimicrobial activity against multidrug-resistant Salmonella enterica serovar Typhimurium 102SA00 harboring plasmid encoded RamR gene, GyrA S83A and D87N, GyrB S464F and ParC S80I mutant genes by agar doubling dilution method
Salmonella typhimurium [14] = test: Antimicrobial activity against multidrug-resistant Salmonella enterica serovar Typhimurium 902SA92 harboring GyrA S83A and D87N, GyrB S464F and ParC S80I mutant genes by agar doubling dilution method
Salmonella typhimurium [15] = test: Antimicrobial activity against ramR-deficient Salmonella enterica serovar Typhimurium S/921495 harboring plasmid encoded RamR gene by agar doubling dilution method
Salmonella typhimurium [16] = test: Antimicrobial activity against Salmonella enterica serovar Typhimurium BN18/41 harboring GyrA G81C,acrR mutant genes by agar doubling dilution method
Salmonella typhimurium [17] = test: Antimicrobial activity against multidrug-resistant Salmonella enterica serovar Typhimurium BN10055 harboring GyrA S83Y mutant gene by agar doubling dilution method
Salmonella typhimurium [18] = test: Antimicrobial activity against ramA::kan-deficient Salmonella enterica serovar Typhimurium BN9181 by agar doubling dilution method
Salmonella typhimurium [19] = test: Antimicrobial activity against ramA::kan-deficient Salmonella enterica serovar Typhimurium 543SA98 harboring GyrA S83Y mutant gene by agar doubling dilution method
Salmonella typhimurium [20] = test: Antimicrobial activity against Salmonella enterica serovar Typhimurium S/921495 by agar doubling dilution method
Salmonella typhimurium [21] = test: Antimicrobial activity against multidrug-resistant Salmonella enterica serovar Typhimurium 102SA00 harboring GyrA S83A and D87N, GyrB S464F and ParC S80I mutant genes by agar doubling dilution method
Salmonella typhimurium [22] = test: Antimicrobial activity against Salmonella enterica serovar Typhimurium BN18 harboring plasmid encoded RamR gene by agar doubling dilution method
Salmonella typhimurium [23] = test: Antimicrobial activity against multidrug-resistant Salmonella enterica serovar Typhimurium BN10055 harboring plasmid encoded RamR gene, GyrA S83Y mutant gene by agar doubling dilution method
Salmonella typhimurium [24] = test: Antimicrobial activity against ramA::kan-deficient Salmonella enterica serovar Typhimurium S/921495 by agar doubling dilution method
Salmonella typhimurium [25] = test: Antimicrobial activity against multidrug-resistant Salmonella enterica serovar Typhimurium BN9945 harboring plasmid encoded RamR gene by agar doubling dilution method
Salmonella typhimurium [26] = test: Antimicrobial activity against ramA::kan-deficient Salmonella enterica serovar Typhimurium BN10055 harboring GyrA S83Y mutant gene by agar doubling dilution method
Salmonella typhimurium [27] = test: Antimicrobial activity against multidrug-resistant Salmonella enterica serovar Typhimurium 543SA98 harboring plasmid encoded RamR gene, GyrA S83Y mutant gene by agar doubling dilution method
Salmonella typhimurium [28] = test: Antimicrobial activity against ramA::kan-deficient Salmonella enterica serovar Typhimurium BN9945 by agar doubling dilution method
Salmonella typhimurium [29] = test: Antimicrobial activity against ramA::kan-deficient Salmonella enterica serovar Typhimurium 902SA92 harboring GyrA S83A and D87N, GyrB S464F and ParC S80I mutant genes by agar doubling dilution method
Salmonella typhimurium [30] = test: Antimicrobial activity against multidrug-resistant Salmonella enterica serovar Typhimurium BN9181 by agar doubling dilution method
Salmonella typhimurium [31] = test: Antimicrobial activity against Salmonella enterica serovar Typhimurium BN18 by agar doubling dilution method
Salmonella typhimurium [32] = test: Antimicrobial activity against marR-deficient Salmonella enterica serovar Typhimurium S/921495 by agar doubling dilution method
Salmonella typhimurium [33] = test: Antimicrobial activity against marR::kan-deficient Salmonella enterica serovar Typhimurium S/921495 by agar doubling dilution method
Salmonella typhimurium [34] = test: Antimicrobial activity against ramR::kan-deficient Salmonella enterica serovar Typhimurium S/921495 by agar doubling dilution method
Salmonella typhimurium [35] = test: Antimicrobial activity against Salmonella enterica serovar Typhimurium BN18/41 harboring plasmid encoded RamR gene, GyrA G81C,acrR mutant genes by agar doubling dilution method
Salmonella typhimurium [36] = test: Antimicrobial activity against marA::kan-deficient Salmonella enterica serovar Typhimurium S/921495 by agar doubling dilution method
Salmonella typhimurium [37] = test: Antimicrobial activity against multidrug-resistant Salmonella enterica serovar Typhimurium BN9181 harboring plasmid encoded RamR gene by agar doubling dilution method
Salmonella typhimurium [38] = test: Antimicrobial activity against ramA::kan-deficient Salmonella enterica serovar Typhimurium BN18/71 harboring plasmid encoded RamR gene, GyrA G81C,acrR mutant genes by agar doubling dilution method
Salmonella typhimurium [39] = test: Antimicrobial activity against ramA::kan-deficient Salmonella enterica serovar Typhimurium BN18/41 harboring plasmid encoded RamR gene, GyrA G81C,acrR mutant genes by agar doubling dilution method
Salmonella typhimurium [40] = test: Antimicrobial activity against Salmonella enterica serovar Typhimurium BN18/71 harboring plasmid encoded RamR gene, GyrA G81C,acrR mutant genes by agar doubling dilution method
Salmonella typhimurium [41] = test: Antimicrobial activity against ramA::kan-deficient Salmonella enterica serovar Typhimurium BN18 by agar doubling dilution method

O=C(O)c1cn(C2CC2)c2cc(N3CCNCC3)c(F)cc2c1=O [CIPROFLOXACIN]
MIC (Salmonella typhimurium [1]): 0.5 mg/L (≈ 1.51 µM)
MIC (Salmonella typhimurium [2]): 0.5 mg/L (≈ 1.51 µM)
MIC (Salmonella typhimurium [3]): 8 mg/L (≈ 24.1 µM)
MIC (Salmonella typhimurium [4]): 0.125 mg/L (≈ 0.377 µM)
MIC (Salmonella typhimurium [5]): 0.015 mg/L (≈ 0.0453 µM)
MIC (Salmonella typhimurium [6]): 0.06 mg/L (≈ 0.181 µM)
MIC (Salmonella typhimurium [7]): 0.015 mg/L (≈ 0.0453 µM)
MIC (Salmonella typhimurium [8]): 0.06 mg/L (≈ 0.181 µM)
MIC (Salmonella typhimurium [9]): 8 mg/L (≈ 24.1 µM)
MIC (Salmonella typhimurium [10]): 0.06 mg/L (≈ 0.181 µM)
MIC (Salmonella typhimurium [11]): 8 mg/L (≈ 24.1 µM)
MIC (Salmonella typhimurium [12]): 0.015 mg/L (≈ 0.0453 µM)
MIC (Salmonella typhimurium [13]): 8 mg/L (≈ 24.1 µM)
MIC (Salmonella typhimurium [14]): 32 mg/L (≈ 96.6 µM)
MIC (Salmonella typhimurium [15]): 0.015 mg/L (≈ 0.0453 µM)
MIC (Salmonella typhimurium [16]): 2 mg/L (≈ 6.04 µM)
MIC (Salmonella typhimurium [17]): 1 mg/L (≈ 3.02 µM)
MIC (Salmonella typhimurium [18]): 0.0075 mg/L (≈ 0.0226 µM)
MIC (Salmonella typhimurium [19]): 0.125 mg/L (≈ 0.377 µM)
MIC (Salmonella typhimurium [20]): 0.015 mg/L (≈ 0.0453 µM)
MIC (Salmonella typhimurium [21]): 32 mg/L (≈ 96.6 µM)
MIC (Salmonella typhimurium [22]): 0.015 mg/L (≈ 0.0453 µM)
MIC (Salmonella typhimurium [23]): 1 mg/L (≈ 3.02 µM)
MIC (Salmonella typhimurium [24]): 0.015 mg/L (≈ 0.0453 µM)
MIC (Salmonella typhimurium [25]): 0.125 mg/L (≈ 0.377 µM)
MIC (Salmonella typhimurium [26]): 0.25 mg/L (≈ 0.754 µM)
MIC (Salmonella typhimurium [27]): 0.125 mg/L (≈ 0.377 µM)
MIC (Salmonella typhimurium [28]): 0.125 mg/L (≈ 0.377 µM)
MIC (Salmonella typhimurium [29]): 8 mg/L (≈ 24.1 µM)
MIC (Salmonella typhimurium [30]): 0.015 mg/L (≈ 0.0453 µM)
MIC (Salmonella typhimurium [31]): 0.015 mg/L (≈ 0.0453 µM)
MIC (Salmonella typhimurium [32]): 0.015 mg/L (≈ 0.0453 µM)
MIC (Salmonella typhimurium [33]): 0.015 mg/L (≈ 0.0453 µM)
MIC (Salmonella typhimurium [34]): 0.06 mg/L (≈ 0.181 µM)
MIC (Salmonella typhimurium [35]): 0.5 mg/L (≈ 1.51 µM)
MIC (Salmonella typhimurium [36]): 0.015 mg/L (≈ 0.0453 µM)
MIC (Salmonella typhimurium [37]): 0.015 mg/L (≈ 0.0453 µM)
MIC (Salmonella typhimurium [38]): 2 mg/L (≈ 6.04 µM)
MIC (Salmonella typhimurium [39]): 0.5 mg/L (≈ 1.51 µM)
MIC (Salmonella typhimurium [40]): 2 mg/L (≈ 6.04 µM)
MIC (Salmonella typhimurium [41]): 0.015 mg/L (≈ 0.0453 µM)

CS(=O)(=O)c1ccc([C@@H](O)[C@@H](CF)NC(=O)C(Cl)Cl)cc1 [FLORFENICOL]
MIC (Salmonella typhimurium [1]): 128 mg/L (≈ 357 µM)
MIC (Salmonella typhimurium [2]): 512 mg/L (≈ 1430 µM)
MIC (Salmonella typhimurium [3]): 4 mg/L (≈ 11.2 µM)
MIC (Salmonella typhimurium [4]): 16 mg/L (≈ 44.7 µM)
MIC (Salmonella typhimurium [5]): 4 mg/L (≈ 11.2 µM)
MIC (Salmonella typhimurium [6]): 4 mg/L (≈ 11.2 µM)
MIC (Salmonella typhimurium [7]): 4 mg/L (≈ 11.2 µM)
MIC (Salmonella typhimurium [8]): 4 mg/L (≈ 11.2 µM)
MIC (Salmonella typhimurium [9]): 64 mg/L (≈ 179 µM)
MIC (Salmonella typhimurium [10]): 16 mg/L (≈ 44.7 µM)
MIC (Salmonella typhimurium [11]): 4 mg/L (≈ 11.2 µM)
MIC (Salmonella typhimurium [12]): 4 mg/L (≈ 11.2 µM)
MIC (Salmonella typhimurium [13]): 4 mg/L (≈ 11.2 µM)
MIC (Salmonella typhimurium [14]): 16 mg/L (≈ 44.7 µM)
MIC (Salmonella typhimurium [15]): 4 mg/L (≈ 11.2 µM)
MIC (Salmonella typhimurium [16]): 64 mg/L (≈ 179 µM)
MIC (Salmonella typhimurium [17]): 128 mg/L (≈ 357 µM)
MIC (Salmonella typhimurium [18]): 32 mg/L (≈ 89.3 µM)
MIC (Salmonella typhimurium [19]): 128 mg/L (≈ 357 µM)
MIC (Salmonella typhimurium [20]): 4 mg/L (≈ 11.2 µM)
MIC (Salmonella typhimurium [21]): 16 mg/L (≈ 44.7 µM)
MIC (Salmonella typhimurium [22]): 4 mg/L (≈ 11.2 µM)
MIC (Salmonella typhimurium [23]): 128 mg/L (≈ 357 µM)
MIC (Salmonella typhimurium [24]): 4 mg/L (≈ 11.2 µM)
MIC (Salmonella typhimurium [25]): 64 mg/L (≈ 179 µM)
MIC (Salmonella typhimurium [26]): 32 mg/L (≈ 89.3 µM)
MIC (Salmonella typhimurium [27]): 128 mg/L (≈ 357 µM)
MIC (Salmonella typhimurium [28]): 64 mg/L (≈ 179 µM)
MIC (Salmonella typhimurium [29]): 4 mg/L (≈ 11.2 µM)
MIC (Salmonella typhimurium [30]): 32 mg/L (≈ 89.3 µM)
MIC (Salmonella typhimurium [31]): 4 mg/L (≈ 11.2 µM)
MIC (Salmonella typhimurium [32]): 4 mg/L (≈ 11.2 µM)
MIC (Salmonella typhimurium [33]): 4 mg/L (≈ 11.2 µM)
MIC (Salmonella typhimurium [34]): 16 mg/L (≈ 44.7 µM)
MIC (Salmonella typhimurium [35]): 8 mg/L (≈ 22.3 µM)
MIC (Salmonella typhimurium [36]): 4 mg/L (≈ 11.2 µM)
MIC (Salmonella typhimurium [37]): 32 mg/L (≈ 89.3 µM)
MIC (Salmonella typhimurium [38]): 8 mg/L (≈ 22.3 µM)
MIC (Salmonella typhimurium [39]): 8 mg/L (≈ 22.3 µM)
MIC (Salmonella typhimurium [40]): 8 mg/L (≈ 22.3 µM)
MIC (Salmonella typhimurium [41]): 2 mg/L (≈ 5.58 µM)
